This passage reports IC50 results from ChEMBL document CHEMBL1129416, “Brain-targeted delivery of a leucine-enkephalin analogue by retrometabolic design” (J Med Chem, 1996).

Molecules are shown by their SMILES.

The nature of the assay: The compound was evaluated for opioid receptors binding affinity competition with [3H]diprenorphine.

In turn, `CC(C)C[C@@H](NC(=O)[C@H](Cc1ccccc1)NC(=O)CNC(=O)[C@@H](C)NC(=O)[C@@H](N)Cc1ccc(O)cc1)C(=O)O` [DADLE] displayed a concentration for half-maximal inhibition (IC50) of 36 nM.
